Test results from ChEMBL document CHEMBL4359811, “Development of Potent and Selective Pyrazolopyrimidine IRAK4 Inhibitors” (J Med Chem, 2019).
Converted amounts (≈) assume the structure as drawn.

Key:
Homo sapiens = species: Homo sapiens; assay: Selectivity ratio, ratio of Ki for human recombinant full length N-terminal His6-tagged IRAK1 (Argl94 to Ser712 residues) expressed in insect cells to Ki for human recombinant full length His6-tagged IRAK4 expressed in baculovirus expression system
[1] = molecular target: T1, Interleukin-1 receptor-associated kinase 4 (Homo sapiens, UniProt Q9NWZ3); assay: Inhibition of IRAK4 in human THP1-Xblue-MD2-CD14 cells assessed as reduction in LPS-induced NFkappaB transcription by measuring alkaline phosphatase level preincubated for 1 hr followed by LPS stimulation and measured after 20 hrs by quanti-blue reagent based reporter assay
T1 sequence (Q9NWZ3 whole entry): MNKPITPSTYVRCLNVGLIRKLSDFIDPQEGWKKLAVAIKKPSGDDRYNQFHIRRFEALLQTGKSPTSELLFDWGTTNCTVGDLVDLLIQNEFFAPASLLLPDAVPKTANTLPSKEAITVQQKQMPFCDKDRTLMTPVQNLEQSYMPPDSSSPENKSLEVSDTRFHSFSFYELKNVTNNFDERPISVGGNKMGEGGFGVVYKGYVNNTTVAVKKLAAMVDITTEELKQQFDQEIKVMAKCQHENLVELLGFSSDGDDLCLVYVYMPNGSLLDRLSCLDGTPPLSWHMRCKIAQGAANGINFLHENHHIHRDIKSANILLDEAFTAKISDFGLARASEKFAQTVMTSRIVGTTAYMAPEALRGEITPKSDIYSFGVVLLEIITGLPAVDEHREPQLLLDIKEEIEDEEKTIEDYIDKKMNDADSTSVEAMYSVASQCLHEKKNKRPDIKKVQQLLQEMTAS

[2] = Kinetic aqueous solubility of the compound in PBS buffer at pH 7.4 incubated for 24 hrs under shaking condition by LC-CLND assay; type: physicochemical; details: for solubility kinetic at 24 h: PBS buffer, pH 7.4, read-out: Kinetic_solubility
[3] = Apparent permeability from apical to basolateral side in MDCK cells at 10 uM incubated for 180 mins and measured up to 180 min by LC-MS/MS analysis; type: ADME, cell-based, Canis lupus familiaris; details: dog
[4] = molecular target: T1, Interleukin-1 receptor-associated kinase 4; assay: Inhibition of human recombinant full length His6-tagged IRAK4 expressed in baculovirus expression system using H-KKARFSRFAGSSPSQSSMVAR as substrate incubated for 90 mins by fluorescence polarisation assay
[5] = molecular target: Interleukin-1 receptor-associated kinase 1 (Homo sapiens, UniProt P51617); assay: Inhibition of human recombinant full length N-terminal His6-tagged IRAK1 (Argl94 to Ser712 residues) expressed in insect cells using H-KKARFSRFAGSSPSQSSMVAR as substrate incubated for 60 mins by fluorescence polarisation assay
Chain of Interleukin-1 receptor-associated kinase 1 (P51617 whole entry): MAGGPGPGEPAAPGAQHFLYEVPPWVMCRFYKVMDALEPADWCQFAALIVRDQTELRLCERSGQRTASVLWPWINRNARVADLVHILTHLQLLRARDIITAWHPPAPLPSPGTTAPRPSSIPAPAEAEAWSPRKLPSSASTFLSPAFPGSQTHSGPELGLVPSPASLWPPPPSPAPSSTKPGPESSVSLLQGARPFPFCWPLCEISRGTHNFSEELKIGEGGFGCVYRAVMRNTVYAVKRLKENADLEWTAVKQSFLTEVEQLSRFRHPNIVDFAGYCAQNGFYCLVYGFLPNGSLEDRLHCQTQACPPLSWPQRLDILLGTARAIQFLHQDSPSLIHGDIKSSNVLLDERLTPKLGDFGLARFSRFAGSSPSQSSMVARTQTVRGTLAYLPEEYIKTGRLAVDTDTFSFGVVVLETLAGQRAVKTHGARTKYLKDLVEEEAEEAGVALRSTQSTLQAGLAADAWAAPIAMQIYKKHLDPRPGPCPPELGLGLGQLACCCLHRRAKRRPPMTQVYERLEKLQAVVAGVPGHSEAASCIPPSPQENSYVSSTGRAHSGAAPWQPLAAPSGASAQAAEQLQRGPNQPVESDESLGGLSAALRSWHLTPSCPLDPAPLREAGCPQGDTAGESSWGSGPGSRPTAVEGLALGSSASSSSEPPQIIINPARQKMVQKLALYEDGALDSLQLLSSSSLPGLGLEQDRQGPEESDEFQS

[6] = Cytotoxicity against human THP1-Xblue-MD2-CD14 cells assessed as reduction in cell viability up to 20 uM preincubated for 1 hr followed by LPS stimulation and measured after 20 hrs; type: cell-based
[7] = Lipophilicity, log D of the compound; type: physicochemical; details: octanol/water
[8] = Protein binding in human plasma at 5 uM incubated for 4 hrs by LC-MS/MS analysis; type: ADME, cell-free; details: read-out: PPB (converted)
[9] = Cmax in mouse at 5 mg/kg, po; type: ADME, organism-based; design: dose 5 mg/kg, route oral; details: in vivo, read-out: Cmax
[10] = Protein binding in mouse plasma at 5 uM incubated for 4 hrs by LC-MS/MS analysis; type: ADME, cell-free; details: read-out: PPB (converted)
[11] = Blood clearance in mouse at 1 mg/kg, iv; type: ADME, organism-based; details: whole blood
[12] = Volume of distribution at steady state in mouse at 1 mg/kg, iv; type: ADME, organism-based; details: in vivo, read-out: Vdss
[13] = AUC (infinity) in mouse at 5 mg/kg, po; type: ADME, organism-based; design: dose 5 mg/kg, route oral, time infinity; details: in vivo
[14] = Oral bioavailability in mouse at 5 mg/kg; type: ADME, organism-based; details: in vivo
[15] = molecular target: T2, Interleukin-1 receptor-associated kinase 4 (Homo sapiens) (UniProt Q9NWZ3); assay: Inhibition of human recombinant full length His6-tagged IRAK4 expressed in baculovirus expression system at 1 uM relative to control
T2 sequence (whole entry): T1 sequence (Q9NWZ3 whole entry)

[16] = AUC (infinity) in mouse at 100 mg/kg, po administered as suspension in MCT; type: ADME, organism-based; design: dose 100 mg/kg, time infinity, route oral; details: in vivo
[17] = Cmax in mouse at 10 mg/kg, po; type: ADME, organism-based; design: dose 10 mg/kg, route oral; details: in vivo
[18] = Oral bioavailability in mouse at 30 mg/kg; type: ADME, organism-based; details: in vivo
[19] = AUC (infinity) in mouse at 10 mg/kg, po; type: ADME, organism-based; design: dose 10 mg/kg, route oral, time infinity; details: in vivo
[20] = Cmax in mouse at 100 mg/kg, po administered as suspension in MCT; type: ADME, organism-based; design: dose 100 mg/kg, route oral; details: in vivo
[21] = Oral bioavailability in mouse at 100 mg/kg administered as suspension in MCT; type: ADME, organism-based; details: in vivo
[22] = AUC (infinity) in mouse at 30 mg/kg, po; type: ADME, organism-based; design: dose 30 mg/kg, time infinity, route oral; details: in vivo
[23] = Cmax in mouse at 30 mg/kg, po; type: ADME, organism-based; design: dose 30 mg/kg, route oral; details: in vivo
[24] = Oral bioavailability in mouse at 10 mg/kg; type: ADME, organism-based; details: in vivo
[25] = molecular target: T1, Interleukin-1 receptor-associated kinase 4; assay: Inhibition of recombinant IRAK4 (unknown origin) using KKARFSRFAGSSPSQSSMVAR as substrate in presence of [gamma33P]-ATP by liquid scintillation counting method

Structure (SMILES)	IC50 [1]	solubility kinetic at 24 h [2]	Papp A→B at 3 h, 10 µM [3]	Ki [4]	Ki [5]	other results
CC1(C)Cc2cc(NC(=O)c3cnn4cccnc34)c(N3CCC(CO)CC3)cc2O1	38 nM	95 µM (≈ 40 µg/mL)	16 ×10⁻⁶ cm/s	–	–	Ratio Ki (Homo sapiens): 210
O=C(Nc1cc2oc(N3CCOCC3)nc2cc1N1CCC(CO)CC1)c1cnn2cccnc12	60 nM	–	–	1.2 nM	340 nM	–
NCC1CCN(c2cc3ncccc3cc2NC(=O)c2cnn3cccnc23)CC1	41 nM	22 µM (≈ 8.83 µg/mL)	–	2 nM	510 nM	Ratio Ki (Homo sapiens): > 200; Activity [6]: Non-Toxic; logD [7]: 0.79
Cn1c(N2CCOCC2)nc2cc(N3CCC(CO)CC3)c(NC(=O)c3cnn4cccnc34)cc21	97 nM	–	2.4 ×10⁻⁶ cm/s	1.8 nM	> 6100 nM	fraction unbound at 4 h, 5 µM [8]: 0.12; Cmax [9]: 200 nM; fraction unbound at 4 h, 5 µM [10]: 0.05; clearance [11]: 23 mL/min/kg; Vd [12]: 0.4 L/kg; AUC(0-inf) [13]: 0.5 µM·h; bioavailability [14]: 3%
CN(C)c1nc2cc(N3CCC(CO)CC3)c(NC(=O)c3cnn4cccnc34)cc2s1	53 nM	–	–	0.5 nM	95 nM	inhibition [15]: > 70%
CC1(C)Cc2cc(NC(=O)c3cnn4cc(OC(F)F)cnc34)c(N3CCOCC3)cc2O1	> 20000 nM	1 µM (≈ 0.459 µg/mL)	0.6 ×10⁻⁶ cm/s	34 nM	–	–
CCn1c(N2CCOCC2)nc2cc(N3CCC(CO)CC3)c(NC(=O)c3cnn4cccnc34)cc21	910 nM	–	–	95 nM	> 10000 nM	–
CC1(C)Cc2cc(NC(=O)c3cnn4cc(O)cnc34)c(N3CCOCC3)cc2O1	330 nM	3.1 µM (≈ 1.27 µg/mL)	14 ×10⁻⁶ cm/s	3.2 nM	–	–
CC1(C)Cc2cc(NC(=O)c3cnn4cc(C(N)=O)cnc34)c(N3CCOCC3)cc2O1	56 nM	1 µM (≈ 0.436 µg/mL)	0.7 ×10⁻⁶ cm/s	–	–	–
O=C(Nc1cc2sc(N3CCOCC3)nc2cc1N1CCOCC1)c1cnn2cccnc12	76 nM	–	12 ×10⁻⁶ cm/s	0.8 nM	190 nM	AUC [16]: 40 µM·h; Cmax [17]: 1300 nM; bioavailability [18]: 12%; fraction unbound at 4 h, 5 µM [8]: 0.05; AUC [19]: 12 µM·h; Cmax [9]: 200 nM; fraction unbound at 4 h, 5 µM [10]: 0.01; Kinetic_solubility ([2]; buffer, pH 7.4, 24 h): Insoluble; inhibition [15]: > 70%; Cmax [20]: 3300 nM; F [21]: 6%; AUC(0-inf) [22]: 11 µM·h; Vd [12]: 0.9 L/kg; Cmax [23]: 2000 nM; F [24]: 25%; AUC(0-inf) [13]: 0.6 µM·h; bioavailability [14]: 5%
CC1(C)Cc2cc(NC(=O)c3cnn4cc(C5CC5)cnc34)c(N3CCOCC3)cc2O1	> 20000 nM	1 µM (≈ 0.434 µg/mL)	–	–	–	–
CC1(C)Cc2cc(NC(=O)c3cnn4cccnc34)c(N3CCOCC3)cc2O1	170 nM	1 µM (≈ 0.393 µg/mL)	14 ×10⁻⁶ cm/s	5.3 nM	–	Ratio Ki (Homo sapiens): 220
CN1CCC2(CC1)Cc1cc(NC(=O)c3cnn4cccnc34)c(N3CCOCC3)cc1O2	230 nM	130 µM (≈ 58.3 µg/mL)	13 ×10⁻⁶ cm/s	7.4 nM	–	–
CC1(C)Cc2cc(NC(=O)c3cnn4cccnc34)c(N3CCCC3)cc2O1	140 nM	7.1 µM (≈ 2.68 µg/mL)	–	–	–	–
COc1cc2cc[nH]c2cc1NC(=O)c1cnn2cccnc12	–	–	–	–	–	Ki [25]: 790 nM
COc1cc2ccccc2cc1NC(=O)c1cnn2cccnc12	–	–	–	–	–	Ki [25]: 610 nM
O=C(Nc1cc2cnc(N3CCOCC3)nc2cc1N1CCCCC1)c1cnn2cccnc12	3000 nM	–	–	170 nM	5400 nM	–
CC1(C)Cc2cc(NC(=O)c3cnn4cc(C#N)cnc34)c(N3CCOCC3)cc2O1	84 nM	1 µM (≈ 0.418 µg/mL)	2.7 ×10⁻⁶ cm/s	6.1 nM	–	–
O=C(Nc1cc2cccnc2cc1N1CCC(CO)CC1)c1cnn2cccnc12	35 nM	1 µM (≈ 0.402 µg/mL)	–	1.7 nM	400 nM	Ratio Ki (Homo sapiens): > 200; Activity [6]: Non-Toxic; logD [7]: 3.1
